{
  "source": "patent US11865359B2",
  "about": "“Tumor imaging with x-rays and other high energy sources using as contrast agents photon-emitting phosphors having therapeutic properties” (IMMUNOLIGHT, LLC., priority 2014, dated 2024)",
  "key": {"[1]": {"system": "B16 cancer cells", "assay": "Clonogenic cell kill, visible phosphor mixtures under x-ray with and without psoralen (AMT)", "format": "cell-based", "text": "Accordingly, combinations of more than two “visible” phosphors can be used in this invention. Discussed below are x-ray settings and mass ratios for clonogenic cell kill experiments. F1 refers to the insertion of an aluminum filter into the x-ray beam to act as a filter.\nFIGS. 34A and 34B show cell kill comparisons (shown here as the number of surviving colonies) between B16 cancer cells treated with and without psoralen (i.e., AMT) with different phosphor mixtures, but otherwise being x-ray stimulated and containing the multiple phosphor combinations noted above. On these drawings, LDLE=low xRT dose, low energy; HDHE=high xRT dose, high energy.\nOn these drawings, LDLE=low xRT dose, low energy; HDHE=high xRT dose, high energy."}, "[2]": {"system": "tumor", "assay": "Animal study, Rodent Syngeneic Model, tumor growth delay", "format": "in vivo, BALB/c female mice", "settings": "50-100 uL intra-tumoral injection three times per week, 100 ug phosphor combination and 5 uM psoralen (AMT), X-Ray 75kVp, 30 mA, 3 min; repeated study same result", "description": "A phosphor system containing the following phosphor combination: LaPO4:Ce^3+, Tb^3+, 3Ca3(PO4)2.Ca(Fl, Cl)2:Sb^3+, Mn^2+, ZrO6-: Pr, Si, CaSiO3:Mn, Pb was used in an animal study based on a Rodent Syngeneic Model. In this animal study, a 50-100 uL intra-tumoral injection three times per week using 100 ug phosphor and 5 uM psoralen (AMT) and exposed to X-Ray dose of 75kVp using 30 mA for a duration of 3 min. The groups of mice in this study consisted of eight BALB/c female mice."}, "[3]": {"settings": "clinical use; cited from earlier work"}, "[4]": {"system": "cells", "settings": "cells kept in the dark compared to those exposed to light; cited from earlier work"}, "[5]": {"system": "sarcoma cell line KP1408", "assay": "Annexin V flow cytometry apoptosis assay, 1Gy 80kVp x-ray", "settings": "psoralen, phosphor and x-ray present"}, "[6]": {"system": "sarcoma cell line KP1619", "assay": "Annexin V flow cytometry apoptosis assay, 1Gy 80kVp x-ray", "settings": "psoralen, phosphor and x-ray present"}},
  "data": [
    {"smiles": "Cc1oc2c(C)c3oc(=O)cc(C)c3cc2c1CN", "note": "[AMT]", "values": [
      {"measurement": "cell kill (surviving colonies) with versus without psoralen", "setting": "[1]; Red/Yellow/Green and Flamingo/Yellow/Green phosphor mixtures, x-ray stimulated, FIGS. 34A and 34B", "result": "improved cell kill"},
      {"measurement": "cell kill with versus without psoralen", "setting": "[1]; flamingo, yellow, green FYG phosphor combination, FIG. 36", "result": "pronounced cell kill"},
      {"measurement": "tumor growth versus saline treated group", "setting": "[2]", "result": "tumor growth delay"}
    ]},
    {"smiles": "Oc1cccc(-c2c3nc(c(-c4cccc(O)c4)c4ccc([nH]4)c(-c4cccc(O)c4)c4nc(c(-c5cccc(O)c5)c5ccc2[nH]5)CC4)C=C3)c1", "note": "[Foscan, Tetra (m-hydroxyphenyl) chlorin]", "values": [
      {"measurement": "duration of skin photosensitivity", "setting": "[3]", "result": "approximately 2 weeks"}
    ]},
    {"smiles": "NCCN.[Cl][Pt]([Cl])([I])[I]", "note": "[[PtCl2I2(en)]]", "values": [
      {"measurement": "cytotoxicity, dark compared to light", "setting": "[4]", "result": "no difference in cytotoxicity"}
    ]},
    {"smiles": "O=c1ccc2cc3ccoc3cc2o1", "note": "[psoralen]", "values": [
      {"measurement": "cell kill with versus without psoralen", "setting": "[1]; higher kVp x-ray conditions, FIGS. 35A and 35B", "result": "does not show an increased kill"},
      {"measurement": "apoptosis", "setting": "[5]", "result": "high apoptosis"},
      {"measurement": "apoptosis", "setting": "[6]", "result": "high apoptosis"}
    ]}
  ]
}
